By IC50 is commonly meant the concentration that inhibits the measured activity by half. For orientation: EC50 means the midpoint of the concentration-response curve.

The values that follow come from patent publication US10792291B2, “Applications for levonorgestrel in preparing anti-ovarian cancer products” (SHANGHAI JIAO TONG UNIVERSITY, priority 2015, dated 2020).

Common to all, as to assay type: cell-based
In experiment [1] the test system is NCI-H441 human lung adenocarcinoma cells. In words: CELLTITER-GLO cell viability assay, NCI-H441 cells (same method). As to the method: (§1) In the examples below, the product sources for the SKOV-3 ovarian cancer cells, the NCI-H1993 non-small cell human lung cancer cells, and the NCI-H441 human lung adenocarcinoma cells are as follows: In example 1, CELLTITER-GLO was used to test levonorgestrel against ovarian cancer. c) The SKOV-3 96-well cell plates prepared in step 1 were removed from the incubator, and 10 μl of the cell culture media (10× final concentration) with varying drug concentrations as described in b) above was added to the SKOV-3 96-well cell culture plate row-by-row as shown in FIG. 1. It was placed into a CO2 incubator at 37° C. for 72 hours, obtaining the SKOV-3 96-well drug screening plate. The final concentrations (μM) of the analyte drug in wells 2-10 in FIG. 1 are, in order: 100, 31.64557, 10.01442, 3.16912, 1.002886, 0.317369, 0.100433, 0.031783, 0.010058; B. CELLTITER-GLO Luminescent Cell Viability Assay System c) 100 μl of CellTiter-Glo reagent (prepared as described in 1 above) was added to all drug screening plates and mixed evenly. f) An EnSpire multi-function plate reader was used at 570 nm to read the luminescent signals. The same method was used to test levonorgestrel's action on the IC50 values of NCI-H1993 human lung non-small cell carcinoma cells and NCI-H441 human lung adenocarcinoma cells; results are shown in Table 1.
(In ATP-based viability assays light output follows the ATP content of the culture.)

Experiment [2] has as its system NCI-H1993 human lung non-small cell carcinoma cells. As to the kind of experiment: CELLTITER-GLO cell viability assay, NCI-H1993 cells (same method). The method, then:
as §1

For experiment [3], the system named is SKOV-3 ovarian cancer cells. In words: CELLTITER-GLO Luminescent Cell Viability Assay, SKOV-3 ovarian cancer cells. The source says: In example 1, CELLTITER-GLO was used to test levonorgestrel against ovarian cancer. m) A cell counter was used to count the number of suspended cells and adjust the cell suspension to an appropriate density in the plate to carry out cell plating experiments. n) SKOV-3 cells were handled as described above, and a SKOV-3 96-well cell culture plate was obtained. The complete medium for SKOV-3 cells was McCOY'S 5A (a live product), Cat #16600082, with a cells/well density of 12000. 2. The drug analyte levonorgestrel was prepared and administered (200× final concentration): a) DMSO was used to dilute the analyte levonorgestrel to 20 mM for use. b) 79 μL of the 20 mM analyte prepared in step a) was added to the first well in the first row of the dilution plate, and then 54 μL of DMSO solution was added to the second through ninth wells of the first row. […] The final concentrations (μM) of the analyte drug in wells 2-10 in FIG. 1 are, in order: 100, 31.64557, 10.01442, 3.16912, 1.002886, 0.317369, 0.100433, 0.031783, 0.010058; B. CELLTITER-GLO Luminescent Cell Viability Assay System a) Before testing, the SKOV-3 96-well drug screening plate described in 3 above was stabilized to room temperature for 20-30 minutes. c) 100 μl of CellTiter-Glo reagent (prepared as described in 1 above) was added to all drug screening plates and mixed evenly. d) It was thoroughly oscillated in a 96-well microplate oscillator for 2 minutes to allow the cells to undergo full lysis. e) It was stored away from light at room temperature for 15 minutes before carrying out luminescent signal detection to ensure signal stability. f) An EnSpire multi-function plate reader was used at 570 nm to read the luminescent signals. g) Data was processed and analyzed.

SMILES strings stand for the structures. Some results are limits rather than exact numbers.

Consider `C#C[C@]1(O)CC[C@H]2[C@@H]3CCC4=CC(=O)CC[C@@H]4[C@H]3CC[C@@]21CC` [levonorgestrel], for which the IC50 in experiment [1] was at least 100 µM; in experiment [2] it was at least 100 µM; in experiment [3] (Homo sapiens, SK-OV-3, SKOV-3 cells, 72 hours, CellTiter-Glo), 3.34 µM. This compound yielded an EC50 in experiment [3] (Homo sapiens, SK-OV-3, SKOV-3 cells, 72 hours, CellTiter-Glo, FIG. 2) of 3.08 µM. Also, the “effect on the proliferation of ovarian cancer cells” value in experiment [3] (compared with NCI-H441 and NCI-H1993 lung cancer cells) is listed as “specific inhibitory effect”.
